The subject of experiment [1] is Escherichia coli. Briefly: Induction of Cu2+-dependent DNA cleavage in pSP64 DNA assessed as form 2 DNA formation at 0.01 uM.
The subject of experiment [2] is Escherichia coli. Description: Induction of Cu2+-dependent DNA cleavage in pSP64 DNA assessed as form 3 DNA formation.
Experiment [3] relates to Escherichia coli. Briefly: Induction of Cu2+-dependent DNA cleavage in pSP64 DNA assessed as form 2 DNA formation at 10 uM.
For experiment [4], the system named is Escherichia coli. Description: Induction of Cu2+-dependent DNA cleavage in pSP64 DNA assessed as form 2 DNA formation at 5 uM.
For experiment [5], the system named is Escherichia coli. Description: Induction of Cu2+-dependent DNA cleavage in pSP64 DNA assessed as form 2 DNA formation at 1 uM.
The test system of experiment [6] is Escherichia coli. Description: Induction of Cu2+-dependent DNA cleavage in pSP64 DNA assessed as form 2 DNA formation at 0.1 uM.

From ChEMBL document CHEMBL1158722, “Umbelactonyl cinnamate derivatives from Crypteronia paniculata that mediate DNA strand scission” (J Nat Prod, 2005) come the findings set out here.

The source made the active and inactive calls. The rule behind the calls is not given here.

As to `CC1=CC(=O)O[C@H]1COC(=O)/C=C/c1ccc(O)c(O)c1`, the Activity amounted to 16% in the experiment on Escherichia coli [1]; 92% in the experiment on Escherichia coli [3]; 88% with Escherichia coli [4]; 68% in the experiment on Escherichia coli [5]; 32% with Escherichia coli [6]. Besides, the outcome in the experiment with Escherichia coli [2] was inactive.
